According to patent US20230303491A1, “DONEPEZIL ETHER PALMITATE OR PHARMACEUTICALLY ACCEPTABLE SALT THEREOF” (CHONG KUN DANG PHARMACEUTICAL CORP., priority 2020, published 2023):

Experiment: Pharmacokinetic evaluation: donepezil concentration in plasma after intramuscular injection of solution phase compositions
Assay type: in vivo
Conditions: SD rats; for release pattern: compared among DEP, DEM, DEPD, DEHD and DES formulations (40 mg/kg as donepezil) or with donepezil
Method: The main ingredients of Table 1 above, castor oil, and benzyl benzoate were mixed according to the components and amounts of Table 2 below, and stirred at room temperature for 0.5 to 3 hours to prepare solution phase compositions.
Four male SD rats with an average weight of 300 g were intramuscularly injected with a dose of 4 mg/kg of donepezil in the formulation of donepezil (D) and 40 mg/kg of donepezil each in the DEP, DEM, DEPD, DEHD, and DES formulations, and the concentrations of donepezil in plasma samples of SD rats were analyzed using LC-MS/MS.

Which “release of drug immediately after administration” value (D 4 mg/kg, DEP 40 mg/kg as donepezil) does the source give for `CCCCCCCCCCCCCCOCC(=O)OC1=C(CC2CCN(Cc3ccccc3)CC2)Cc2cc(OC)c(OC)cc21` [DEP, 2-((1-benzylpiperidin-4-yl)methyl)-5,6-dimethoxy-1H-inden-3-yl 2-(tetradecyloxy) acetate] here?
Its value is “without rapid release of drug after administration”.

What about the release pattern of the same compound?
The release pattern was “most preferred for the sustained-release composition”.

What about the release pattern (listed as donepezil ether palmitate (DEP)) of the same compound?
Its release pattern is “better release pattern than that of donepezil”.
